Test results as given in patent US12497365B2, “4-pyridinyl formamide compound or derivative thereof, preparation method therefor, herbicidal composition and use thereof” (Qingdao Kingagroot Chemical Compound Co., Ltd., priority 2019, dated 2025).

Key:
Assay in all cases: Weeding effect in post-emergence stage
Type in all cases: in vivo
Conditions in all cases: active ingredient 2000 g/ha, 3 weeks after application, fresh weight control rate
Abutilon theophrasti = tested on: Abutilon theophrasti
From the text: (§1) The activity level criteria for plant damage (i.e., growth control rate) are as follows:
(§2) The above growth control rates are fresh weight control rates.
(§3) Experiment on weeding effect in post-emergence stage: monocotyledonous and dicotyledonous weed seeds and major crop seeds (wheat, corn, rice, soybean, cotton, oilseed rape, millet, sorghum) were placed in plastic pots filled with soil, then covered with 0.5-2 cm of soil, allowed to grow in a good greenhouse environment. After 2 weeks of sowing, the test plants were treated in the 2-3 leaf stage. The tested compounds of the present invention were respectively dissolved in acetone at the dosage of 2000, 1000, 500, 250, 125 g/ha, then added with Tween 80 and 1.5 liter/ha of emulsifiable concentrate of methyl oleate as synergist, diluted with a certain amount of water to obtain a solution with a certain concentration, and sprayed with a spray tower onto the plants. After the application, the plants were cultured for 3 weeks in the greenhouse, and then the experimental results were listed in Table 1.

Descurainia sophia = tested on: Descurainia sophia
From the text: as §1, §2, §3

Chenopodium album = tested on: Chenopodium album
From the text: as §1, §2, §3

[1] = tested on: Amaranthus retroflexus L.
From the text: as §1, §2, §3

SMILES	Weeding effect, activity level (growth control rate), Abutilon theophrasti (Abutilon theophrasti)	Weeding effect, activity level (growth control rate), Descurainia sophia (Descurainia sophia)	Weeding effect, activity level (growth control rate), Chenopodium album (Chenopodium album)	Weeding effect, activity level (growth control rate), Amaranthus retroflexus L. [1]
Cn1nnnc1NC(=O)c1ccnc(-c2ccc(OC(F)(F)F)cc2)c1Cl [Compound 1-33]	5 (Level 5: growth control rate is above 85%)	5 (Level 5: growth control rate is above 85%)	5 (Level 5: growth control rate is above 85%)	5 (Level 5: growth control rate is above 85%)
Cn1nnnc1NC(=O)c1ccnc(-c2ccccc2O)c1Cl [Compound 1-34]	5 (Level 5: growth control rate is above 85%)	5 (Level 5: growth control rate is above 85%)	5 (Level 5: growth control rate is above 85%)	5 (Level 5: growth control rate is above 85%)
Cn1nnnc1NC(=O)c1ccnc(-c2ccc(O)cc2)c1Cl [Compound 1-35]	5 (Level 5: growth control rate is above 85%)	5 (Level 5: growth control rate is above 85%)	5 (Level 5: growth control rate is above 85%)	5 (Level 5: growth control rate is above 85%)
Cn1nnnc1NC(=O)c1ccnc(-c2cccc(CO)c2)c1Cl [Compound 1-36]	5 (Level 5: growth control rate is above 85%)	5 (Level 5: growth control rate is above 85%)	5 (Level 5: growth control rate is above 85%)	5 (Level 5: growth control rate is above 85%)
Cn1nnnc1NC(=O)c1ccnc(-c2ccc(N)cc2)c1Cl [Compound 1-37]	5 (Level 5: growth control rate is above 85%)	5 (Level 5: growth control rate is above 85%)	5 (Level 5: growth control rate is above 85%)	5 (Level 5: growth control rate is above 85%)
Cn1nnnc1NC(=O)c1ccnc(-c2ccccc2[N+](=O)[O-])c1Cl [Compound 1-38]	5 (Level 5: growth control rate is above 85%)	5 (Level 5: growth control rate is above 85%)	5 (Level 5: growth control rate is above 85%)	5 (Level 5: growth control rate is above 85%)
Cn1nnnc1NC(=O)c1ccnc(-c2ccc(C(=O)O)cc2)c1Cl [Compound 1-39]	5 (Level 5: growth control rate is above 85%)	5 (Level 5: growth control rate is above 85%)	5 (Level 5: growth control rate is above 85%)	5 (Level 5: growth control rate is above 85%)
COC(=O)c1ccc(-c2nccc(C(=O)Nc3nnnn3C)c2Cl)cc1 [Compound 1-40]	5 (Level 5: growth control rate is above 85%)	5 (Level 5: growth control rate is above 85%)	5 (Level 5: growth control rate is above 85%)	5 (Level 5: growth control rate is above 85%)
Cn1nnnc1NC(=O)c1ccnc(-c2ccc(C(=O)OC(C)(C)C)cc2)c1Cl [Compound 1-41]	5 (Level 5: growth control rate is above 85%)	5 (Level 5: growth control rate is above 85%)	5 (Level 5: growth control rate is above 85%)	5 (Level 5: growth control rate is above 85%)
CSc1ccccc1-c1nccc(C(=O)Nc2nnnn2C)c1Cl [Compound 1-42]	5 (Level 5: growth control rate is above 85%)	5 (Level 5: growth control rate is above 85%)	5 (Level 5: growth control rate is above 85%)	5 (Level 5: growth control rate is above 85%)
CC(C)Sc1ccc(-c2nccc(C(=O)Nc3nnnn3C)c2Cl)cc1 [Compound 1-43]	5 (Level 5: growth control rate is above 85%)	5 (Level 5: growth control rate is above 85%)	5 (Level 5: growth control rate is above 85%)	5 (Level 5: growth control rate is above 85%)
Cn1nnnc1NC(=O)c1ccnc(-c2cccc(S(C)(=O)=O)c2)c1Cl [Compound 1-44]	5 (Level 5: growth control rate is above 85%)	5 (Level 5: growth control rate is above 85%)	5 (Level 5: growth control rate is above 85%)	5 (Level 5: growth control rate is above 85%)
Cn1nnnc1NC(=O)c1ccnc(-c2ccc(S(C)(=O)=O)cc2)c1Cl [Compound 1-45]	5 (Level 5: growth control rate is above 85%)	5 (Level 5: growth control rate is above 85%)	5 (Level 5: growth control rate is above 85%)	5 (Level 5: growth control rate is above 85%)
Cn1nnnc1NC(=O)c1ccnc(-c2ccc(S(=O)(=O)N3CCOCC3)cc2)c1Cl [Compound 1-46]	5 (Level 5: growth control rate is above 85%)	5 (Level 5: growth control rate is above 85%)	5 (Level 5: growth control rate is above 85%)	5 (Level 5: growth control rate is above 85%)
CC(=O)Nc1ccc(-c2nccc(C(=O)Nc3nnnn3C)c2Cl)cc1 [Compound 1-47]	5 (Level 5: growth control rate is above 85%)	5 (Level 5: growth control rate is above 85%)	5 (Level 5: growth control rate is above 85%)	5 (Level 5: growth control rate is above 85%)
C=CC(=O)Nc1cccc(-c2nccc(C(=O)Nc3nnnn3C)c2Cl)c1 [Compound 1-48]	5 (Level 5: growth control rate is above 85%)	5 (Level 5: growth control rate is above 85%)	5 (Level 5: growth control rate is above 85%)	5 (Level 5: growth control rate is above 85%)
Cn1nnnc1NC(=O)c1ccnc(-c2cccc(C#N)c2)c1Cl [Compound 1-49]	5 (Level 5: growth control rate is above 85%)	5 (Level 5: growth control rate is above 85%)	5 (Level 5: growth control rate is above 85%)	5 (Level 5: growth control rate is above 85%)
Cn1nnnc1NC(=O)c1ccnc(-c2ccc(C#N)cc2)c1Cl [Compound 1-50]	5 (Level 5: growth control rate is above 85%)	5 (Level 5: growth control rate is above 85%)	5 (Level 5: growth control rate is above 85%)	5 (Level 5: growth control rate is above 85%)
Cn1nnnc1NC(=O)c1ccnc(-c2ccc(OC3CCCCO3)cc2)c1Cl (centres unmarked) [Compound 1-51]	5 (Level 5: growth control rate is above 85%)	5 (Level 5: growth control rate is above 85%)	5 (Level 5: growth control rate is above 85%)	5 (Level 5: growth control rate is above 85%)
Cn1nnnc1NC(=O)c1ccnc(-c2ccccc2-c2ccccc2)c1Cl [Compound 1-52]	5 (Level 5: growth control rate is above 85%)	5 (Level 5: growth control rate is above 85%)	5 (Level 5: growth control rate is above 85%)	5 (Level 5: growth control rate is above 85%)
